Data reported in patent US20050214384A1, “Chromium compositions and methods for using the same for inhibiting drug-induced insulin resistance” (priority 2002, published 2005).
Like-named read-outs stand apart in the source and are kept apart here.

Legend:
[1] = system: rats; settings: oral CrCl3; cited from earlier work
[2] = system: rats; settings: cited from earlier work
[3] = system: subjects taking statin drugs; assay: Clinical trial of chromium picolinate on statin-induced insulin resistance (Example 1); format: in vivo, human; settings: 400 μg chromium, one capsule a day orally, approximately six months, versus statin drug without chromium supplementation
Procedure: The effect of a chromium complex in inhibiting drug-induced insulin resistance is evaluated. Specifically, the effects of chromium picolinate on insulin sensitivity and vascular reactivity in subjects taking statin drugs are evaluated.
A clinical trial is initiated which includes approximately 80 male and female subjects between the ages of 35 and 65. The subject population is characterized as individuals suffering from moderate hypercholesterolemia and moderate high blood pressure. All subjects have been diagnosed with hypercholesterolemia. LDLC based on 75th percentile (>140-165 mg/dL) and HDL-C: <30 mg/dL. […]
Study visits are scheduled at the start of the study to record baseline information on the subjects and every two weeks thereafter. The following physiological conditions are measured prior to administration of the supplement as a baseline and at regular intervals during the course of the study: Glycated hemoglobin, fasting insulin, fasting plasma glucose levels, total cholesterol, triglycerides, LDL, HDL, urinalysis (routine), CBC, and serum chemistry, as well as blood pressure and body weight. In addition, insulin sensitivity is measured according to the euglycemic-hyperinsulinemic glucose clamp technique specified by R. A. DeFronzo et al. Glucose Clamp Technique: A Method for Quantifying Insulin Secretion and Resistance, 237 Am. […]

Compound: CC(=O)Oc1ccccc1C(=O)O [aspirin]
- effect on chromium absorption [1]: facilitated

Compound: [Cl][Cr]([Cl])[Cl] [chromium chloride]
- toxic effects ([2]; levels several thousand times the upper limit of the ESADDI for chromium for humans (based on body weight)): without toxic effects

Compound: chromium picolinate
- incidence of drug-induced insulin resistance [3]: lower incidence of drug-induced insulin resistance
- toxic effects ([2]; rat, in vivo): without toxic effects
